Results on ten cell lines are retold here after the supplement of paper PMC10307832.

What all share (experiment): relative viability (nuclei count vs DMSO), 5 days (fraction); higher = more cells survive
Compound in the test “Selisistat + Olaparib”: C1CC(C2=C(C1)C3=C(N2)C=CC(=C3)Cl)C(=O)N [Selisistat] + O=C(c1cc(Cc2n[nH]c(=O)c3ccccc23)ccc1F)N1CCN(C(=O)C2CC2)CC1 [Olaparib] (partner 8 µM)
The method in brief: (§1)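 Medians of duplicate plates are given as relative viability. That measure is the nuclei count in treated wells divided by the count in vehicle wells. Counts were taken on 4× images of lung cancer cell lines in 1536-well plates, 5 days after pin-tool dosing the day after seeding with one drug alone or a fixed anchor-drug dose plus five library-drug doses (not always all listed) in √10 steps.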

Compound in the test “Serdemetan + Foretinib”: c1ccc2c(CCNc3ccc(Nc4ccncc4)cc3)c[nH]c2c1 [Serdemetan] + COc1cc2c(Oc3ccc(NC(=O)C4(C(=O)Nc5ccc(F)cc5)CC4)cc3F)ccnc2cc1OCCCN1CCOCC1 [Foretinib] (partner 0.25 µM)
The method in brief: as §1

Compound in the test “Serdemetan + Crizotinib”: c1ccc2c(CCNc3ccc(Nc4ccncc4)cc3)c[nH]c2c1 [Serdemetan] + C[C@@H](Oc1cc(-c2cnn(C3CCNCC3)c2)cnc1N)c1c(Cl)ccc(F)c1Cl [Crizotinib] (partner 1 µM)
The method in brief:
as §1

Compound in the test “Selisistat + AZD7762”: C1CC(C2=C(C1)C3=C(N2)C=CC(=C3)Cl)C(=O)N [Selisistat] + NC(=O)Nc1cc(-c2cccc(F)c2)sc1C(=O)N[C@H]1CCCNC1 [AZD7762] (partner 0.2 µM)
In a few lines:
as §1

In the case of A549, the relative viability came out at 0.439 with Selisistat + Olaparib (first compound 0.4 µM); 0.299 in the test with Selisistat + Olaparib (first compound 1.265 µM); 0.267 in the test with Selisistat + Olaparib (first compound 4 µM); 0.324 with Selisistat + Olaparib (first compound 12.65 µM); 0.314 with Selisistat + Olaparib (first compound 40 µM); 0.964 with Serdemetan + Foretinib (first compound 0.04 µM). The relative viability in the test with Serdemetan + Foretinib (first compound 0.1265 µM) was determined as 0.969; in the test with Serdemetan + Foretinib (first compound 0.4 µM), 1.02; with Serdemetan + Foretinib (first compound 1.265 µM), 0.627; with Serdemetan + Foretinib (first compound 4 µM), 0.177; with Serdemetan + Crizotinib (first compound 0.04 µM) it was 0.807; in the test with Serdemetan + Crizotinib (first compound 0.1265 µM), 0.757. Further, the relative viability was 0.764 in the test with Serdemetan + Crizotinib (first compound 0.4 µM), 0.578 in the test with Serdemetan + Crizotinib (first compound 1.265 µM) and 0.306 with Serdemetan + Crizotinib (first compound 4 µM).

Take COR-L23: the relative viability with Selisistat + Olaparib (first compound 0.4 µM) worked out at 0.409; with Selisistat + Olaparib (first compound 1.265 µM) it was 0.331; with Selisistat + Olaparib (first compound 4 µM) it was 0.406; with Selisistat + Olaparib (first compound 12.65 µM), 0.367; with Selisistat + Olaparib (first compound 40 µM) it was 0.335; with Serdemetan + Foretinib (first compound 0.04 µM), 0.989. The relative viability in the test with Serdemetan + Foretinib (first compound 0.1265 µM) is 1.01; with Serdemetan + Foretinib (first compound 0.4 µM) it was 1.07; in the test with Serdemetan + Foretinib (first compound 1.265 µM), 0.847; with Serdemetan + Foretinib (first compound 4 µM), 0.843; with Serdemetan + Crizotinib (first compound 0.04 µM), 0.679; with Serdemetan + Crizotinib (first compound 0.1265 µM), 0.578. Moreover, the relative viability in the test with Serdemetan + Crizotinib (first compound 0.4 µM) worked out at 0.771; in the test with Serdemetan + Crizotinib (first compound 1.265 µM), 0.589; with Serdemetan + Crizotinib (first compound 4 µM), 0.564.

As for COR-L 105, the relative viability with Selisistat + Olaparib (first compound 0.4 µM) worked out at 0.703; with Selisistat + Olaparib (first compound 1.265 µM), 0.67; in the test with Selisistat + Olaparib (first compound 4 µM) it was 0.815; with Selisistat + Olaparib (first compound 12.65 µM), 0.659; with Selisistat + Olaparib (first compound 40 µM) it was 0.576; in the test with Serdemetan + Foretinib (first compound 0.04 µM), 0.979. Further, the relative viability amounted to 0.866 with Serdemetan + Foretinib (first compound 0.1265 µM); 0.9 with Serdemetan + Foretinib (first compound 0.4 µM); 0.839 with Serdemetan + Foretinib (first compound 1.265 µM); 0.772 with Serdemetan + Foretinib (first compound 4 µM); 0.729 with Serdemetan + Crizotinib (first compound 0.04 µM); 0.716 in the test with Serdemetan + Crizotinib (first compound 0.1265 µM). In addition, the relative viability with Serdemetan + Crizotinib (first compound 0.4 µM) was found to be 0.709; in the test with Serdemetan + Crizotinib (first compound 1.265 µM) it was 0.874; with Serdemetan + Crizotinib (first compound 4 µM), 0.838.

With Calu-6, the relative viability with Selisistat + Olaparib (first compound 0.4 µM) was 0.561; in the test with Selisistat + Olaparib (first compound 1.265 µM), 0.572; with Selisistat + Olaparib (first compound 4 µM), 0.634; in the test with Selisistat + Olaparib (first compound 12.65 µM) it was 0.552; in the test with Selisistat + Olaparib (first compound 40 µM), 0.617; with Serdemetan + Foretinib (first compound 0.04 µM), 0.866. Moreover, the relative viability with Serdemetan + Foretinib (first compound 0.1265 µM) is 0.819; with Serdemetan + Foretinib (first compound 0.4 µM), 0.839; with Serdemetan + Foretinib (first compound 1.265 µM) it was 0.567; with Serdemetan + Foretinib (first compound 4 µM), 0.472; in the test with Serdemetan + Crizotinib (first compound 0.04 µM), 0.832; in the test with Serdemetan + Crizotinib (first compound 0.1265 µM) it was 0.718. In addition, the relative viability with Serdemetan + Crizotinib (first compound 0.4 µM) is 0.712; with Serdemetan + Crizotinib (first compound 1.265 µM), 0.566; with Serdemetan + Crizotinib (first compound 4 µM) it was 0.527.

In the case of EBC-1, the relative viability with Selisistat + Olaparib (first compound 0.4 µM) was 0.763; in the test with Selisistat + Olaparib (first compound 1.265 µM) it was 0.732; with Selisistat + Olaparib (first compound 4 µM) it was 0.711; with Selisistat + Olaparib (first compound 12.65 µM) it was 0.728; with Selisistat + Olaparib (first compound 40 µM), 0.66; with Serdemetan + Foretinib (first compound 0.04 µM), 0.12. Moreover, the relative viability with Serdemetan + Foretinib (first compound 0.1265 µM) was 0.123; in the test with Serdemetan + Foretinib (first compound 0.4 µM), 0.107; with Serdemetan + Foretinib (first compound 1.265 µM), 0.124; with Serdemetan + Foretinib (first compound 4 µM), 0.129; with Serdemetan + Crizotinib (first compound 0.04 µM), 0.19; with Serdemetan + Crizotinib (first compound 0.1265 µM), 0.214. Also, the relative viability with Serdemetan + Crizotinib (first compound 0.4 µM) was 0.188; with Serdemetan + Crizotinib (first compound 1.265 µM), 0.19; in the test with Serdemetan + Crizotinib (first compound 4 µM), 0.181.

On to IA-LM, for which the relative viability turned out to be 0.899 with Selisistat + Olaparib (first compound 0.4 µM); 0.897 with Selisistat + Olaparib (first compound 1.265 µM); 0.849 in the test with Selisistat + Olaparib (first compound 4 µM); 0.802 with Selisistat + Olaparib (first compound 12.65 µM); 0.806 with Selisistat + Olaparib (first compound 40 µM); 1.04 with Serdemetan + Foretinib (first compound 0.04 µM). For the same cell line, the relative viability turned out to be 1.06 with Serdemetan + Foretinib (first compound 0.1265 µM); 0.877 with Serdemetan + Foretinib (first compound 0.4 µM); 0.999 with Serdemetan + Foretinib (first compound 1.265 µM); 0.414 with Serdemetan + Foretinib (first compound 4 µM); 0.898 with Serdemetan + Crizotinib (first compound 0.04 µM); 0.767 with Serdemetan + Crizotinib (first compound 0.1265 µM). The relative viability in the test with Serdemetan + Crizotinib (first compound 0.4 µM) was determined as 0.813; in the test with Serdemetan + Crizotinib (first compound 1.265 µM), 0.465; with Serdemetan + Crizotinib (first compound 4 µM), 0.357.

As for NCI-H520, the relative viability was determined as 0.413 in the test with Selisistat + Olaparib (first compound 0.4 µM); 0.317 with Selisistat + Olaparib (first compound 1.265 µM); 0.364 with Selisistat + Olaparib (first compound 4 µM); 0.344 with Selisistat + Olaparib (first compound 12.65 µM); 0.319 with Selisistat + Olaparib (first compound 40 µM); 0.668 with Serdemetan + Foretinib (first compound 0.04 µM). For the same cell line, the relative viability is 0.737 with Serdemetan + Foretinib (first compound 0.1265 µM); 0.874 with Serdemetan + Foretinib (first compound 0.4 µM); 0.511 in the test with Serdemetan + Foretinib (first compound 4 µM); 0.692 with Serdemetan + Crizotinib (first compound 0.04 µM); 0.778 with Serdemetan + Crizotinib (first compound 0.1265 µM); 0.686 with Serdemetan + Crizotinib (first compound 0.4 µM). Further, the relative viability came out at 0.687 with Serdemetan + Crizotinib (first compound 1.265 µM) and 0.641 with Serdemetan + Crizotinib (first compound 4 µM).

Consider NCI-H522, for which the relative viability in the test with Selisistat + AZD7762 (first compound 0.4 µM) is 0.63; with Selisistat + AZD7762 (first compound 1.265 µM), 0.672; with Selisistat + AZD7762 (first compound 4 µM) it was 0.622; in the test with Selisistat + AZD7762 (first compound 12.65 µM), 0.9; with Selisistat + AZD7762 (first compound 40 µM) it was 1.01; with Selisistat + Olaparib (first compound 0.4 µM), 0.574. For the same cell line, the relative viability with Selisistat + Olaparib (first compound 1.265 µM) was 0.766; in the test with Selisistat + Olaparib (first compound 4 µM) it was 0.634; with Selisistat + Olaparib (first compound 12.65 µM) it was 0.553; with Selisistat + Olaparib (first compound 40 µM), 0.519.

Turning to NCI-H661, the relative viability came to 0.739 with Selisistat + Olaparib (first compound 0.4 µM); 0.713 with Selisistat + Olaparib (first compound 1.265 µM); 0.781 with Selisistat + Olaparib (first compound 4 µM); 0.667 in the test with Selisistat + Olaparib (first compound 12.65 µM); 0.577 with Selisistat + Olaparib (first compound 40 µM); 1 with Serdemetan + Foretinib (first compound 0.04 µM). Besides, the relative viability in the test with Serdemetan + Foretinib (first compound 0.1265 µM) was 1.01; with Serdemetan + Foretinib (first compound 0.4 µM), 1.02; with Serdemetan + Foretinib (first compound 1.265 µM), 0.924; with Serdemetan + Foretinib (first compound 4 µM), 0.796; in the test with Serdemetan + Crizotinib (first compound 0.04 µM), 1.01; in the test with Serdemetan + Crizotinib (first compound 0.4 µM), 0.977. Moreover, the relative viability with Serdemetan + Crizotinib (first compound 4 µM) was found to be 0.987.

Take NCI-H1299: the relative viability with Selisistat + Olaparib (first compound 0.4 µM) stood at 1.04; with Selisistat + Olaparib (first compound 1.265 µM), 0.972; with Selisistat + Olaparib (first compound 4 µM), 1; in the test with Selisistat + Olaparib (first compound 12.65 µM), 1.03; with Selisistat + Olaparib (first compound 40 µM) it was 1.02; with Serdemetan + Foretinib (first compound 0.04 µM), 1.05. Further, the relative viability was found to be 1.07 in the test with Serdemetan + Foretinib (first compound 0.1265 µM); 1.02 in the test with Serdemetan + Foretinib (first compound 0.4 µM); 0.92 with Serdemetan + Foretinib (first compound 1.265 µM); 0.755 with Serdemetan + Foretinib (first compound 4 µM); 0.898 in the test with Serdemetan + Crizotinib (first compound 0.04 µM); 0.947 with Serdemetan + Crizotinib (first compound 0.1265 µM). Also, the relative viability with Serdemetan + Crizotinib (first compound 0.4 µM) is 0.905; with Serdemetan + Crizotinib (first compound 1.265 µM), 0.866; with Serdemetan + Crizotinib (first compound 4 µM), 0.716.
